Assay results taken from patent publication US4092420A, “Novel soft N-chloroamino alcohol derivatives exhibiting antibacterial activity” (INTERx Research Corporation, priority 1977, dated 1978).

Legend:
S. pyogenes = test: Minimal inhibitory concentration (MIC), Example V; type: cell-based; settings: Streptococcus pyogenes
A. niger = test: Minimal inhibitory concentration (MIC), Example V; type: cell-based; settings: Aspergillus niger
Source text: (§1) MINIMAL INHIBITORY CONCENTRATION OF 2-AMINO-2-METHYL-1-PROPYL
(§2) ^a Minimal inhibitory concentration expressed in parts per million
(§3) sequence inhibited the test organism at the higher concentrations.
(§4) THE ANTIBACTERIAL SCREEN - EXAMPLE V

E. coli [1] = test: Minimal inhibitory concentration (MIC), Example V; type: cell-based; settings: Escherichia coli
Source text: as §1, §2, §3, §4

T. mentagrophytes = test: Minimal inhibitory concentration (MIC), Example V; type: cell-based; settings: Trichophyton mentagrophytes
Source text: as §1, §2, §3, §4

C. albicans = test: Minimal inhibitory concentration (MIC), Example V; type: cell-based; settings: Candida albicans
Source text: MINIMAL INHIBITORY CONCENTRATION OF 2-AMINO-2-METHYL-1-PROPYL […]
as §4

E. coli [2] = test: Contact germicidal efficiency (sterilization time); type: cell-based, Escherichia coli; settings: Example Y, pH 4.6, in presence of horse serum, 468 ppm (80 PPMCl+)
Method: CONTACT GERMICIDAL EFFICIENCY OF
(§5) ^a Time intervals screened 0.5, 1, 2, 3, 4 and 5 minutes.
(§6) ^a Time intervals screened 0.5, 1, 2, 3, 4, 5, 6, 7, 8, 9 and 10
(§7) ^a Time intervals screened 0.5, 1, 2, 3, 4, and 5 minutes.
(§8) ^b Time intervals screened 0.5, 1, 2, 3, 4, 5, 6, 7, 8, 9 and 10
(§9) Immediately preceding the screen, the compound is weighed and diluted with a buffer or other solvent to give the final concentration desired. The buffer or solvent chosen depends on the conditions of the screen and could be one of the following: 0.1 M NaOAc, pH 4.6; 0.1 M NaH2 PO4, pH 7.0; 0.1 M Na2 B4 O7, pH 8.8; 35% methanol in one of the aforementioned buffers; 10% Triton × 100 in buffer, etc.
(§10) The positive chlorine concentration of the test solution is then determined iodometrically.
Media used for the Screen are Nutrient Broth, BBL# 11479 and Nutrient Agar, BBL# 11472 prepared according to label directions. The broth is dispensed in 75 ml amounts of flasks for overnight cultures and in 5 ml amounts to culture tubes for subculturing during the Screen. Agar plates are prepared as usual. […]
A 0.2 ml portion of the overnight culture is inoculated into 5 ml of 0.9% NaCl for use in controls. […] The earliest subculture time at which no growth is present in the subculture tube is considered the endpoint and is recorded as that time, e.g., 7 minutes. […]

K. pneumoniae = test: Contact germicidal efficiency (sterilization time); type: cell-based, Klebsiella pneumoniae
Method: (§11) CONTACT GERMICIDAL EFFICIENCY OF N-CHLORAMINES AS A FUNCTION
as §5, §6, §7, §8, §9, §10
(§12) Media used for the Screen are Nutrient Broth, BBL# 11479 and Nutrient Agar, BBL# 11472 prepared according to label directions. The broth is dispensed in 75 ml amounts of flasks for overnight cultures and in 5 ml amounts to culture tubes for subculturing during the Screen. Agar plates are prepared as usual.
(§13) Overnight cultures are prepared by inoculating from stock cultures into the 75 ml flasks of nutrient broth and incubating for 15 hours at 37° C.
(§14) The iodometrically characterized test solution is dispensed in 5 ml amounts to seven small stoppered flasks. The organisms are screened one at a time as follows:
(§15) A 0.2 ml portion of the overnight culture is inoculated into 5 ml of 0.9% NaCl for use in controls. A 0.2 ml portion of the overnight culture is inoculated into a flask containing 5 ml of the test solution, an automatic timer is simultaneously triggered and the solution mixed. At time intervals of 30 seconds, 1, 2, 3, 4, 5, 6, 7, 8, 9, and 10 minutes a loopful of the inoculated solution is subcultured into 5 ml of sterile nutrient broth and mixed by a Vortex Genie Mixer, the high dilution serving to stop the action of the compound. At the end of the ten minute screen, the entire procedure is repeated for each of the remaining six organisms. All of the subculture tubes are incubated at 37° C and checked for signs of growth by turbidity at 24 hr., 48 hr., 3, 5, and 7 days. The earliest subculture time at which no growth is present in the subculture tube is considered the endpoint and is recorded as that time, e.g., 7 minutes.
(§16) The test solution is prepared and characterized as above but is made up at twice the concentration desired. The solution is diluted 1:1 with Rehydrated Tissue Culture Dessicated Horse Serum, Difco #5357-72 and dispensed in a 5 ml amount to a small flask. The mixture is incubated at Room Temperature for 30 minutes to allow denaturation of the compound by the serum and then screened as above.
(§17) The 5 ml mixture of serum and test solution are prepared in sequence to allow as close to 30 minutes as possible before the beginning of the screen of each organism.
(§18) Bacteria: Staphylococcus aureas Smith (or 209), Escherichia coli AB 1932-1, 1100/B22 and Vogel, Streptococcus pyogenes C203 Salmonella typhimurium 14028, Bacillus subtilis 6051-1, Klebsiella pneumoniae 10031, Pseudomonas aeruginosa 9027, Bordetella bronchiseptica 4617 and Staphylococcus epidermidis 12228.

B. bronchiseptica = test: Contact germicidal efficiency (sterilization time); type: cell-based, Bordetella bronchiseptica
Method: as §11, §5, §6, §7, §8, §9, §10, §12, §13, §14, §15, §16, §17, §18

[3] = Example X, pH 4.6, no horse serum, IV c 404 ppm (69 PPMCl+), IV g 489 ppm (143 PPMCl+)
[4] = Example X, pH 7.0, no horse serum, IV c 1886 ppm (323 PPMCl+), IV g 409 ppm (120 PPMCl+)
[5] = Example X, pH 9.3, no horse serum, IV c 1704 ppm (292 PPMCl+), IV g 319 ppm (94 PPMCl+)
[6] = Example Y, pH 4.6, in presence of horse serum, 468 ppm (80 PPMCl+)

`CC(C)(COC(=O)C(C)(C)C)NCl` [IV c, 2-N-Chloroamino-2-methyl-1-propyl 2,2-dimethylproprionate] showed an MIC (S. pyogenes) of over 125 µg/mL, an MIC (A. niger) of over 250 µg/mL and an MIC (E. coli [1]) of over 250 µg/mL. For the same molecule, the MIC (T. mentagrophytes) was over 250 µg/mL, the MIC (C. albicans) was over 250 µg/mL and the “Sterilization Time” value (E. coli [2]) was over 10 min. For the same molecule, the “Sterilization Time” value (K. pneumoniae; [3]) was 0.5 min, the “Sterilization Time” value (K. pneumoniae; [4]) was 2 min and the “Sterilization Time” value (K. pneumoniae; [5]) was 2 min. For the same molecule, the “Sterilization Time” value (K. pneumoniae; [6]) was over 10 min, the “Sterilization Time” value (B. bronchiseptica; [3]) was 0.5 min and the “Sterilization Time” value (B. bronchiseptica; [4]) was 1 min. For the same molecule, the “Sterilization Time” value (B. bronchiseptica; [5]) was 1 min and the “Sterilization Time” value (B. bronchiseptica; [6]) was over 10 min.
